Key:
HCC78 = assay: cells; settings: Homo sapiens, HCC78, 72 h
Description: Antiproliferative activity against ROS1-addicted human HCC78 cells assessed as reduction in cell viability incubated for 72 hrs by MTT assay

A549 = assay: cells; settings: Homo sapiens, A549, 72 h
[1] = biological target: T1, Proto-oncogene tyrosine-protein kinase ROS (Homo sapiens, UniProt P08922)
NCI-H3122 = assay: cells; settings: Homo sapiens, NCI-H3122, 72 h
Description: Antiproliferative activity against ALK-addicted human NCI-H3122 cells assessed as reduction in cell viability incubated for 72 hrs by MTT assay

[2] = biological target: T1, Proto-oncogene tyrosine-protein kinase ROS; remark: listed apart in the source
[3] = biological target: T2, ALK tyrosine kinase receptor (Homo sapiens, UniProt Q9UM73)
Target sequence in this assay (Q9UM73 whole entry): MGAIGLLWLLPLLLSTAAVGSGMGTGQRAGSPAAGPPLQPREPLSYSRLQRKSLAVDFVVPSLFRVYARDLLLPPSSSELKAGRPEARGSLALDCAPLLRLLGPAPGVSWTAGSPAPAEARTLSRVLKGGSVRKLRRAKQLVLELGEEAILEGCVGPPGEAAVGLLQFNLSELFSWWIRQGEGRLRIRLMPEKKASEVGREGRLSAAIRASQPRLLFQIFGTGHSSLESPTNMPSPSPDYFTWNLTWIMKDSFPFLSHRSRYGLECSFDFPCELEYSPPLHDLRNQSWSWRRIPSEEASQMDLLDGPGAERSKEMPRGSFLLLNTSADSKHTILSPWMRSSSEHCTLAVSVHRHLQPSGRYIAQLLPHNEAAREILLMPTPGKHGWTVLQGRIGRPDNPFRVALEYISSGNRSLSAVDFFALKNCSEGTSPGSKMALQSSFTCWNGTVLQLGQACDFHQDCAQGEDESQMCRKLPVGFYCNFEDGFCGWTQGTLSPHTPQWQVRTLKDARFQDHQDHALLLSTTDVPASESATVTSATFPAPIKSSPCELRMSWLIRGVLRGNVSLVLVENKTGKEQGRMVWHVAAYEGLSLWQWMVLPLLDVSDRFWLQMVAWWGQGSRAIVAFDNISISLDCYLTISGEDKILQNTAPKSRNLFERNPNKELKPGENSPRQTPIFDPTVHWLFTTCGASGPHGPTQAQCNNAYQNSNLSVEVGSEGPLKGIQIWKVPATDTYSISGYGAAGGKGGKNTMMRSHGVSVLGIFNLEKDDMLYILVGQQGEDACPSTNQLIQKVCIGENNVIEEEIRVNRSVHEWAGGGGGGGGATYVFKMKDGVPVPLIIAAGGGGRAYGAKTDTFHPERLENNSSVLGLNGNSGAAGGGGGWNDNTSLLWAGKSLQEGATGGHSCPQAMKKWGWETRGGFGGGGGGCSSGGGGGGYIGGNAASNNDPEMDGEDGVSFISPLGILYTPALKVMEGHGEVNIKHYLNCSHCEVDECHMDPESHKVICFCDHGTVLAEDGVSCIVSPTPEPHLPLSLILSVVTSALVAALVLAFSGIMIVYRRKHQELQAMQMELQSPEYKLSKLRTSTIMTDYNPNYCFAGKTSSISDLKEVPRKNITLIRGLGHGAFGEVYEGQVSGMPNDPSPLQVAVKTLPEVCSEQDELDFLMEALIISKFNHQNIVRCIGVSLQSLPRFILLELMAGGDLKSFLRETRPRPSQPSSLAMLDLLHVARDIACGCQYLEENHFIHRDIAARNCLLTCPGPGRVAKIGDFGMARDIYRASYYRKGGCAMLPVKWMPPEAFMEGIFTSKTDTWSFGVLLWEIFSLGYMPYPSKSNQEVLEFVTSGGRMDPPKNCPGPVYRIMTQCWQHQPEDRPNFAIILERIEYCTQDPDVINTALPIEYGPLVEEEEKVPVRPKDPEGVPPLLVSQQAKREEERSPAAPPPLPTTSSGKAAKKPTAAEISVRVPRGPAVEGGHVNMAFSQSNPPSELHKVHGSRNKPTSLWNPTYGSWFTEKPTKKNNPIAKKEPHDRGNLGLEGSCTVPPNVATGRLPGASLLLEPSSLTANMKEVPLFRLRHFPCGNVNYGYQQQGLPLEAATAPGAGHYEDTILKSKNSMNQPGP

[4] = biological target: T2, ALK tyrosine kinase receptor; settings: at 1 µM
[5] = tested on: ALK tyrosine kinase receptor (Homo sapiens), Q9UM73 [L1196M]; settings: at 1 µM
Description: Inhibition of ALK L1196M mutant (unknown origin) at 1 uM relative to control

[6] = biological target: Tyrosine-protein kinase BTK (Homo sapiens) (UniProt Q06187); assay: Inhibition of BTK (unknown origin) at 1 uM
BaF3 [7] = assay: Potency index, ratio of crizotinib IC50 to compound IC50 for mouse BAF3 cells expressing CD74/ROS1 G2032R mutant incubated for 72 hrs by CCK8 assay; type: functional
[8] = biological target: Mitogen-activated protein kinase 9 (Homo sapiens) (UniProt P45984); assay: Inhibition of MAPK9 (unknown origin) at 1 uM
[9] = tested on: ALK tyrosine kinase receptor (Homo sapiens), Q9UM73 [R1275Q]; settings: at 1 µM
BaF3 [10] = assay: cells; settings: Mus musculus, BaF3, 72 h
Description: Antiproliferative activity against mouse BAF3 cells expressing CD74/ROS1 G2032R mutant assessed as reduction in cell viability incubated for 72 hrs by CCK8 assay

[11] = biological target: Leukocyte tyrosine kinase receptor (Homo sapiens) (UniProt P29376); assay: Inhibition of LTK (unknown origin) at 1 uM
BaF3 [12] = assay: cells; settings: Mus musculus, BaF3, 72 h; remark: listed apart in the source
Description: Antiproliferative activity against mouse BAF3 cells expressing wild type CD74/ROS1 assessed as reduction in cell viability incubated for 72 hrs by CCK8 assay

[13] = biological target: Insulin-like growth factor 1 receptor (Homo sapiens) (UniProt P08069); assay: Inhibition of IGF1R (unknown origin) at 1 uM
[14] = biological target: Tyrosine-protein kinase Fes/Fps (Homo sapiens) (UniProt P07332); assay: Inhibition of FES (unknown origin) at 1 uM
[15] = biological target: Serine/threonine-protein kinase Nek2 (Homo sapiens) (UniProt P51955); assay: Inhibition of NEK2 (unknown origin) at 1 uM
[16] = tested on: ALK tyrosine kinase receptor (Homo sapiens), Q9UM73 [C1156Y]; settings: at 1 µM
[17] = biological target: Proto-oncogene tyrosine-protein kinase receptor Ret (Homo sapiens) (UniProt P07949); assay: Inhibition of RET (unknown origin) at 1 uM
BaF3 [18] = assay: cells; settings: Mus musculus, BaF3, 72 h; remark: listed apart in the source
Description: Antiproliferative activity against mouse BAF3 cells expressing CD74/ROS1 L2026M mutant assessed as reduction in cell viability incubated for 72 hrs by CCK8 assay

[19] = biological target: CDK2/Cyclin A2 (Homo sapiens) (UniProt P24941+P20248); assay: Inhibition of CDK2/cyclinA (unknown origin) at 1 uM; type: protein-complex assay
[20] = biological target: Tyrosine-protein kinase Fer (Homo sapiens) (UniProt P16591); assay: Inhibition of FER (unknown origin) at 1 uM
[21] = tested on: ALK tyrosine kinase receptor (Homo sapiens), Q9UM73 [L1196M]; assay: Potency index, ratio of crizotinib IC50 to compound IC50 for ALK L1196M mutant (unknown origin) at 1 uM
[22] = biological target: Vascular endothelial growth factor receptor 2 (Homo sapiens) (UniProt P35968); assay: Inhibition of KDR (unknown origin) at 1 uM
[23] = biological target: Tyrosine-protein kinase JAK2 (Homo sapiens) (UniProt O60674); assay: Inhibition of JAK2 (unknown origin) at 1 uM
[24] = tested on: ALK tyrosine kinase receptor (Homo sapiens), Q9UM73 [F1174L]; settings: at 1 µM
[25] = biological target: Epidermal growth factor receptor (Homo sapiens) (UniProt P00533); assay: Inhibition of EGFR (unknown origin) at 1 uM
[26] = biological target: ALK tyrosine kinase receptor (Homo sapiens, UniProt Q9UM73, L1196M)
Description: Inhibition of ALK L1196M mutant (unknown origin) at 1 uM

[27] = biological target: Hepatocyte growth factor receptor (Homo sapiens) (UniProt P08581); assay: Inhibition of MET (unknown origin) at 1 uM
[28] = biological target: Activated CDC42 kinase 1 (Homo sapiens) (UniProt Q07912); assay: Inhibition of TNK2 (unknown origin) at 1 uM
Activated CDC42 kinase 1 (Homo sapiens), sequence (Q07912 whole entry, looked up): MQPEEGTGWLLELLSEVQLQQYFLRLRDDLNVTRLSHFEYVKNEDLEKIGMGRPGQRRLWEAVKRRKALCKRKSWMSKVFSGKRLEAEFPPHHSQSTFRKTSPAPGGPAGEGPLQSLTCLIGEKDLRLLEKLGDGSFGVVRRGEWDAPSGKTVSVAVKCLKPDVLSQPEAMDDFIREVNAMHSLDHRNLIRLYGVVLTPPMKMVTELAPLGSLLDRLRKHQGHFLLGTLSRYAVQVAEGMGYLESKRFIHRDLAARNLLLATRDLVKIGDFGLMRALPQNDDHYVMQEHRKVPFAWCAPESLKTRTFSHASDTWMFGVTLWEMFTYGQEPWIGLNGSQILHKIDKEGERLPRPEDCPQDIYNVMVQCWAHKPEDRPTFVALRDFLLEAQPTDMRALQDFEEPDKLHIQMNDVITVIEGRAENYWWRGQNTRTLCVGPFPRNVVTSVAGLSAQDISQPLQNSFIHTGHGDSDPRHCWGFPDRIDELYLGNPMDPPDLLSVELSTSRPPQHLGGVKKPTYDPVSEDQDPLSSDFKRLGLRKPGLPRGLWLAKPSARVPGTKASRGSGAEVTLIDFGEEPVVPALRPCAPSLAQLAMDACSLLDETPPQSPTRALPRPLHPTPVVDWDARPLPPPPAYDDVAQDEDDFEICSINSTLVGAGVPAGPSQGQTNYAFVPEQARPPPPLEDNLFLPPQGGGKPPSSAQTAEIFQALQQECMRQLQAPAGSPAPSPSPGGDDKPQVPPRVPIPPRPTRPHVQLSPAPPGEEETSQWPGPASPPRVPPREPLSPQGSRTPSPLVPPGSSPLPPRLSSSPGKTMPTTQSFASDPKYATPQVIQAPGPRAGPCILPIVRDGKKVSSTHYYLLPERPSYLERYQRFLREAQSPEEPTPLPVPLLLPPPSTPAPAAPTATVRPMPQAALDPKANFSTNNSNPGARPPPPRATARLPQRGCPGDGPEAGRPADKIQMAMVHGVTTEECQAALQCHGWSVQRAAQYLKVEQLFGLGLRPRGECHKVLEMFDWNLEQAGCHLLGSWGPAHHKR

T1 sequence (P08922 whole entry): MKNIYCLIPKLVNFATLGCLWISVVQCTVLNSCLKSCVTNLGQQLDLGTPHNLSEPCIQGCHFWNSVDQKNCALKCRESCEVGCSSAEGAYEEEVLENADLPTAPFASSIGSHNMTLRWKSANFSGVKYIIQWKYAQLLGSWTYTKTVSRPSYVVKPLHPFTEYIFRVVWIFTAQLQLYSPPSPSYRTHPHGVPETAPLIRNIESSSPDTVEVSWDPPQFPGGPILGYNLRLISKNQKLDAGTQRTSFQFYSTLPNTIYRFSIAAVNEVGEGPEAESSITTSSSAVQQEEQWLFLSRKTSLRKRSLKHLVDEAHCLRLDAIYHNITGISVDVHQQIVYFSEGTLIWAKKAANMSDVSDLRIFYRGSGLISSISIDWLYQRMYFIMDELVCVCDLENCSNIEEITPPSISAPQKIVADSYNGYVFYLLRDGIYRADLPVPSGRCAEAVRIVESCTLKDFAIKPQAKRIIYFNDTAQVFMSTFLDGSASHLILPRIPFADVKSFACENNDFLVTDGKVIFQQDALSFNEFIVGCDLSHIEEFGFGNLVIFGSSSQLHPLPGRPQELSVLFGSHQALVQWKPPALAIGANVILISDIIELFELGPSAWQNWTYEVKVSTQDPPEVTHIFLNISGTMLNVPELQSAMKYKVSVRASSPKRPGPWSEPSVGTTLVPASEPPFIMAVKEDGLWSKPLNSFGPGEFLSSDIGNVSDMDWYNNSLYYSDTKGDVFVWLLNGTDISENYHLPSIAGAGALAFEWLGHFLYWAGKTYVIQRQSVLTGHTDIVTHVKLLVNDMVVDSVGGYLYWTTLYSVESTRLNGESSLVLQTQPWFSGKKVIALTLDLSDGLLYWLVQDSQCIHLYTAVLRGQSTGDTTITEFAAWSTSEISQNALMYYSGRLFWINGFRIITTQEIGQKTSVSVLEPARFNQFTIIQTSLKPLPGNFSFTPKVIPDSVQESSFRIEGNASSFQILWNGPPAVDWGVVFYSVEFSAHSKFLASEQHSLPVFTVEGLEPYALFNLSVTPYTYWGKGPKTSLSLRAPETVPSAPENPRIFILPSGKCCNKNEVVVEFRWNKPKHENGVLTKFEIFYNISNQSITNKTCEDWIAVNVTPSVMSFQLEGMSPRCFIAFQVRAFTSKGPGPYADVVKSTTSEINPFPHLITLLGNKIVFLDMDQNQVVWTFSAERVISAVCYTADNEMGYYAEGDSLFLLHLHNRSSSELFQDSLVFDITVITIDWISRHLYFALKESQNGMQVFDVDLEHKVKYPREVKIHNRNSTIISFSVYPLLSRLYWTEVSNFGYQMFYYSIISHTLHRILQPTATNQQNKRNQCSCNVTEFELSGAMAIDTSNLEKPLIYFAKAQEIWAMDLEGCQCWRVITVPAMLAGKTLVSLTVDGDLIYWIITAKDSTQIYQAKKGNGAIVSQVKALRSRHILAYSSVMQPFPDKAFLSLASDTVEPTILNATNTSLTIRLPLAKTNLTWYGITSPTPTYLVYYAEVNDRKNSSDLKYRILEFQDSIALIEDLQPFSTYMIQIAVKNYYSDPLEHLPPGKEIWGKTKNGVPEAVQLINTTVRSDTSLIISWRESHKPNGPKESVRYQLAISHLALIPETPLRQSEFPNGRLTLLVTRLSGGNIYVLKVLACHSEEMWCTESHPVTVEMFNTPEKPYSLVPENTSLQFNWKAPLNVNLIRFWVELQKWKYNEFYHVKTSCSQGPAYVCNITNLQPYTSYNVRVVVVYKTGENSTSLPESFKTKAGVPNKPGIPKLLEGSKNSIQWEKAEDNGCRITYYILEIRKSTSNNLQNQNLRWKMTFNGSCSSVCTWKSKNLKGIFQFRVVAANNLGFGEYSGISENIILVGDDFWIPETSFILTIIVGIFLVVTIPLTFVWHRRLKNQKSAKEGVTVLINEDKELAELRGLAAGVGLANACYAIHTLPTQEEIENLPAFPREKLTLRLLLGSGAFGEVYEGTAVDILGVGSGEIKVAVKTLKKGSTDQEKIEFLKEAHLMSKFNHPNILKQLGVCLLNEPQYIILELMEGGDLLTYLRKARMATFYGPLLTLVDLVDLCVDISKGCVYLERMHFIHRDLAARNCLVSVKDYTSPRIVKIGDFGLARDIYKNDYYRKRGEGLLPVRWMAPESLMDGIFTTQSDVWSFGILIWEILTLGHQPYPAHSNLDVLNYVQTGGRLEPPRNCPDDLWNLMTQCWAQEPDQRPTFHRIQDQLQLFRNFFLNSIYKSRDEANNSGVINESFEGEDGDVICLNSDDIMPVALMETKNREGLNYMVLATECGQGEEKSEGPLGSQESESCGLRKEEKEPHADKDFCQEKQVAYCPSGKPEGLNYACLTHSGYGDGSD
ALK tyrosine kinase receptor (Homo sapiens), Q9UM73 [L1196M], sequence (Q9UM73 whole entry L1196M, looked up): as the sequence (Q9UM73 whole entry) above, with L1196M counted along it
ALK tyrosine kinase receptor (Homo sapiens), Q9UM73 [R1275Q], sequence (Q9UM73 whole entry R1275Q): as the sequence (Q9UM73 whole entry) above, with R1275Q counted along it
ALK tyrosine kinase receptor (Homo sapiens), Q9UM73 [C1156Y], sequence (Q9UM73 whole entry C1156Y, looked up): as the sequence (Q9UM73 whole entry) above, with C1156Y counted along it

SMILES: Cc1ccc(CNC(=O)[C@H]2CCCN(c3ccnc(Nc4cn(C)nc4C)c3)C2)cc1
- IC50 (HCC78): 67.2 µM
- IC50 (A549): 39.6 µM
- IC50 [1]: Not Active
- IC50 (NCI-H3122): 40.7 µM

SMILES: Cc1cc(Nc2cc(N3CCC[C@@H](C(=O)NCc4ccc(OC(F)(F)F)cc4)C3)ccn2)ccc1NC1CCN(C)CC1
- IC50 (HCC78): 13.5 µM
- IC50 [2]: > 10 µM
- IC50 (A549): 6.51 µM
- IC50 (NCI-H3122): 10.4 µM

SMILES: COc1cc(N2CCNCC2)ccc1Nc1cc(N2CCC[C@@H](C(=O)NCc3ccc(OC(F)(F)F)cc3)C2)ccn1
- IC50 (HCC78): 25.3 µM
- IC50 [2]: 1.21 µM
- IC50 [3]: 0.56 µM
- inhibition [4]: 76%
- IC50 (A549): 5.11 µM
- IC50 (NCI-H3122): 10.7 µM

SMILES: COc1cc(N2CCC(N3CCN(C)CC3)CC2)ccc1Nc1cc(N2CCC[C@H](C(=O)NCc3ccc(OC(F)(F)F)cc3)C2)ccn1
- IC50 (HCC78): 11 µM
- IC50 [2]: 2.26 µM
- IC50 (A549): 6.6 µM
- IC50 (NCI-H3122): 16.6 µM

SMILES: Cc1nn(C)cc1Nc1cc(N2CCC[C@@H](C(=O)NCc3ccc(OC(F)(F)F)cc3)C2)ccn1
- IC50 (HCC78): 80.7 µM
- IC50 [2]: 7.3 µM
- IC50 (A549): 9.74 µM
- IC50 (NCI-H3122): 13.9 µM

SMILES: COc1ccc(CNC(=O)[C@H]2CCCN(c3ccnc(Nc4cnn(C)c4)c3)C2)cc1OC
- IC50 (HCC78): > 100 µM
- IC50 (A549): > 100 µM
- IC50 [1]: Not Active
- IC50 (NCI-H3122): > 100 µM

SMILES: CN1CCC(n2cc(Nc3cc(N4CCC[C@H](C(=O)NCc5ccc(C#N)cc5)C4)ccn3)cn2)CC1
- IC50 (HCC78): 87.6 µM
- IC50 (A549): 53.8 µM
- IC50 [1]: Not Active
- IC50 (NCI-H3122): 15.1 µM

SMILES: COc1cc(Nc2cc(N3CCC[C@H](C(=O)NCc4ccc(C)cc4)C3)ccn2)cc(OC)c1OC
- IC50 (HCC78): 24.5 µM
- IC50 [2]: 12.1 µM
- IC50 (A549): 12.7 µM
- IC50 (NCI-H3122): 27.8 µM

SMILES: O=C(NCc1ccc(OC(F)(F)F)cc1)[C@H]1CCCN(c2ccnc(Nc3ncccn3)c2)C1
- IC50 (HCC78): 36.5 µM
- IC50 (A549): 17.2 µM
- IC50 [1]: Not Active
- IC50 (NCI-H3122): 44.3 µM

SMILES: COc1cc(N2CCC(N3CCOCC3)CC2)ccc1Nc1cc(N2CCC[C@@H](C(=O)NCc3ccc(OC(F)(F)F)cc3)C2)ccn1
- IC50 (HCC78): 13.7 µM
- IC50 [2]: > 10 µM
- IC50 (A549): 6.45 µM
- IC50 (NCI-H3122): 8.3 µM

SMILES: COc1ccc(CNC(=O)[C@H]2CCCN(c3ccnc(Nc4cnn(C5CCN(C)CC5)c4)c3)C2)cc1OC
- IC50 (HCC78): > 100 µM
- IC50 (A549): > 100 µM
- IC50 [1]: Not Active
- IC50 (NCI-H3122): > 100 µM

SMILES: Cc1nn(C)cc1Nc1cc(N2CCC[C@H](C(=O)NCc3ccc(OC(F)(F)F)cc3)C2)ccn1
- IC50 (HCC78): 34.6 µM
- IC50 [2]: 1.26 µM
- IC50 (A549): 11.3 µM
- IC50 (NCI-H3122): 20.2 µM

SMILES: COc1cc(N2CCC(N3CCN(C)CC3)CC2)ccc1Nc1cc(N2CCC[C@@H](C(=O)NCc3ccc(OC(F)(F)F)cc3)C2)ccn1
- IC50 (HCC78): 10.9 µM
- IC50 [2]: > 10 µM
- IC50 (A549): 2.79 µM
- IC50 (NCI-H3122): 8.86 µM

SMILES: COc1ccc(CNC(=O)[C@H]2CCCN(c3ccnc(Nc4cn(C)nc4C)c3)C2)cc1OC
- IC50 (HCC78): > 100 µM
- IC50 (A549): > 100 µM
- IC50 [1]: Not Active
- IC50 (NCI-H3122): > 100 µM

SMILES: COc1ccc(CNC(=O)[C@H]2CCCN(c3ccnc(Nc4cnn(C5CCNCC5)c4)c3)C2)cc1OC
- IC50 (HCC78): 83.7 µM
- IC50 (A549): > 100 µM
- IC50 [1]: Not Active
- IC50 (NCI-H3122): 51.7 µM

SMILES: Cc1cc(Nc2cc(N3CCC[C@H](C(=O)NCc4ccc(OC(F)(F)F)cc4)C3)ccn2)ccc1NC1CCN(C)CC1
- IC50 (HCC78): 7.76 µM
- IC50 [2]: > 10 µM
- IC50 (A549): 7.07 µM
- IC50 (NCI-H3122): 5.1 µM

SMILES: COc1cc(N2CCN(C)CC2)ccc1Nc1cc(N2CCC[C@H](C(=O)NCc3ccc(OC(F)(F)F)cc3)C2)ccn1
- IC50 (HCC78): 14.9 µM
- IC50 [2]: 1.08 µM
- IC50 (A549): 7.79 µM
- IC50 (NCI-H3122): 7.53 µM

SMILES: COc1cc(N2CCC(N3CCOCC3)CC2)ccc1Nc1cc(N2CCC[C@H](C(=O)NCc3ccc(OC(F)(F)F)cc3)C2)ccn1
- IC50 (HCC78): 15.2 µM
- IC50 [2]: 3.39 µM
- IC50 (A549): 6.93 µM
- IC50 (NCI-H3122): 5.81 µM

SMILES: COc1cc(N2CCNCC2)ccc1Nc1cc(N2CCC[C@H](C(=O)NCc3ccc(OC(F)(F)F)cc3)C2)ccn1
- inhibition [5]: 93%
- IC50 (HCC78): 10.7 µM
- IC50 [2]: 0.53 µM
- IC50 [3]: 0.174 µM
- inhibition [6]: -5%
- Ratio IC50 (BaF3 [7]): 6
- inhibition [8]: -10%
- inhibition [9]: 92%
- IC50 (BaF3 [10]): 0.105 µM
- inhibition [11]: 91%
- IC50 (BaF3 [12]): 0.138 µM
- inhibition [13]: 3%
- inhibition [4]: 95%
- inhibition [14]: -1%
- inhibition [15]: -7%
- IC50 (A549): 3.64 µM
- inhibition [16]: 100%
- inhibition [17]: -3%
- IC50 (BaF3 [18]): 0.234 µM
- inhibition [19]: 1%
- inhibition [20]: 6%
- IC50 (NCI-H3122): 6.45 µM
- Ratio IC50 [21]: 2
- inhibition [22]: -3%
- inhibition [23]: 11%
- inhibition [24]: 80%
- inhibition [25]: 11%
- IC50 [26]: 0.0413 µM
- inhibition [27]: 6%
- inhibition [28]: -3%
